EC50 data for 26 molecules are collected here from patent US9255085B2, “Carboxamide compounds and methods for using the same” (Rigel Pharmaceuticals, Inc., priority 2008, dated 2016).

In one experiment the target is AMPK. In words: AMPK activation, enzyme-linked immunosorbent assay. In kind it is biochemical. The settings on record: ELISA, Table 2. The protocol:
Compounds 1-13 were assayed for their ability to activate AMPK using an enzyme-linked immunosorbent assay.
Compounds 14-16 were assayed for their ability to activate AMPK using an enzyme-linked immunosorbent assay.
Compounds 17-18 were assayed for their ability to activate AMPK using an enzyme-linked immunosorbent assay.
Compounds 19-22 were assayed for their ability to activate AMPK using an enzyme-linked immunosorbent assay.
Compounds 23-26 were assayed for their ability to activate AMPK using an enzyme-linked immunosorbent assay.
Compounds 27-33 were assayed for their ability to activate AMPK using an enzyme-linked immunosorbent assay.
Compounds 34-42 were assayed for their ability to activate AMPK using an enzyme-linked immunosorbent assay.
Background: In an ELISA, binding on a coated surface is turned into a signal by an enzyme label.
As a reminder, the EC50 is the concentration needed to bring the measured effect to its halfway point. The molecule `O=C(c1ccc(F)cc1)N1CC2CC1CN2C(=O)c1nc2ccc(OC3CCN(c4ccc(C(F)(F)F)cc4)CC3)cc2o1` (centres unmarked) [Compound 13, (5-(4-fluorobenzoyl)-2,5-diazabicyclo[2.2.1]heptan-2-yl)(6-(1-(4-(trifluoromethyl)phenyl)piperidin-4-yloxy)benzo[d]oxazol-2-yl)methanone] came in with an EC50 below 100 nM.

The experiment is the same for the next values; noted with them: ELISA, Table 3.
`CC(C)(C)OC(=O)N1CCC(NC(=O)c2nc3ccc(OC4CCN(c5ccc(C(F)(F)F)cc5)CC4)cc3s2)CC1` [Compound 14, tert-butyl 4-(6-(1-(4-(trifluoromethyl)phenyl)piperidin-4-yloxy)benzo[d]thiazole-2-carboxamido)piperidine-1-carboxylate] showed a concentration giving a half-maximal response (EC50) of 1000 to 10000 nM.

Molecule `O=C(NC1CCN(Cc2ccncc2)CC1)c1nc2ccc(OC3CCN(c4ccc(C(F)(F)F)cc4)CC3)cc2s1` [Compound 15, N-(1-(Pyridin-4-ylmethyl)piperidin-4-yl)-6-(1-(4-(trifluoromethyl)phenyl)piperidin-4-yloxy)benzo[d]thiazole-2-carboxamide] showed a 50% effective concentration (EC50) of 100 to 1000 nM.

In turn, `N#Cc1ccc(CN2CCC(NC(=O)c3nc4ccc(OC5CCN(c6ccc(C(F)(F)F)cc6)CC5)cc4s3)CC2)cc1` [Compound 16, N-(1-(4-Cyanobenzyl)piperidin-4-yl)-6-(1-(4-(trifluoromethyl)phenyl)piperidin-4-yloxy)benzo[d]thiazole-2-carboxamide] had an EC50 of 100 to 1000 nM.

Staying with this experiment, now noted: ELISA, Table 4.
`O=C(NC1CCN(Cc2ccncc2)CC1)c1cn2ccc(OC3CCN(c4ccc(C(F)(F)F)cc4)CC3)cc2n1` [Compound 17, N-(1-(Pyridin-4-ylmethyl)piperidin-4-yl)-7-(1-(4-(trifluoromethyl)phenyl)piperidin-4-yloxy)imidazo[1,2-a]pyridine-2-carboxamide] registered an EC50 below 100 nM.

For the molecule `N#Cc1ccc(CN2CCC(NC(=O)c3cn4ccc(OC5CCN(c6ccc(C(F)(F)F)cc6)CC5)cc4n3)CC2)cc1` [Compound 18, N-(1-(4-Cyanobenzyl)piperidin-4-yl)-7-(1-(4-(trifluoromethyl)phenyl)piperidin-4-yloxy)imidazo[1,2-a]pyridine-2-carboxamide], the EC50 is below 100 nM.

The same experiment, now with this note: ELISA, Table 5.
Regarding `CC(C)(C)OC(=O)N1CCC(NC(=O)c2cnc(OC3CCN(c4ccc(C(F)(F)F)cc4)CC3)cn2)CC1` [Compound 19, tert-butyl 4-(5-(1-(4-(trifluoromethyl)phenyl)piperidin-4-yloxy)pyrazine-2-carboxamido)piperidine-1-carboxylate], the concentration for a half-maximal effect (EC50) lay in the range of 1000 to 10000 nM.

`O=C(NC1CCNCC1)c1cnc(OC2CCN(c3ccc(C(F)(F)F)cc3)CC2)cn1` [Compound 20, N-(piperidin-4-yl)-5-(1-(4-(trifluoromethyl)phenyl)piperidin-4-yloxy)pyrazine-2-carboxamide] came in with a 50% effective concentration (EC50) above 100000 nM.

In the case of `O=C(NC1CCN(Cc2ccncc2)CC1)c1cnc(OC2CCN(c3ccc(C(F)(F)F)cc3)CC2)cn1` [Compound 21, N-(1-(Pyridin-4-ylmethyl)piperidin-4-yl)-5-(1-(4-(trifluoromethyl)phenyl)piperidin-4-yloxy)pyrazine-2-carboxamide], the EC50 was below 100 nM.

In turn, `N#Cc1ccc(CN2CCC(NC(=O)c3cnc(OC4CCN(c5ccc(C(F)(F)F)cc5)CC4)cn3)CC2)cc1` [Compound 22, N-(1-(4-Cyanobenzyl)piperidin-4-yl)-5-(1-(4-(trifluoromethyl)phenyl)piperidin-4-yloxy)pyrazine-2-carboxamide] came in with a concentration giving a half-maximal response (EC50) below 100 nM.

The same experiment, now with this note: ELISA, Table 6.
`N#Cc1ccc(CN2CCC(NC(=O)c3cnc(OC4CCN(c5ccc(C(F)(F)F)cc5)CC4)s3)CC2)cc1` [Compound 23, N-(1-(4-cyanobenzyl)piperidin-4-yl)-2-(1-(4-(trifluoromethyl)phenyl)piperidin-4-yloxy)thiazole-5-carboxamide] returned a concentration giving a half-maximal response (EC50) below 100 nM.

`N#Cc1ccc(CN2CCC(NC(=O)c3cnc(OC4CCN(c5ccc(C#N)cc5)CC4)s3)CC2)cc1` [Compound 24, N-(1-(4-Cyanobenzyl)piperidin-4-yl)-2-(1-(4-cyanophenyl)piperidin-4-yloxy)thiazole-5-carboxamide] had an EC50 below 100 nM.

For the molecule `N#Cc1ccc(CN2CCC(NC(=O)c3cnc(OC4CCN(Cc5ccc(C(F)(F)F)cc5)CC4)s3)CC2)cc1` [Compound 25, N-(1-(4-Cyanobenzyl)piperidin-4-yl)-2-(1-(4-(trifluoromethyl)benzyl)piperidin-4-yloxy)thiazole-5-carboxamide], the EC50 is below 100 nM.

As for `CC(C)(C)OC(=O)N1CCC(Oc2ncc(C(=O)NC3CCN(Cc4ccc(C#N)cc4)CC3)s2)CC1` [Compound 26, tert-Butyl 4-(5-(1-(4-cyanobenzyl)piperidin-4-ylcarbamoyl)thiazol-2-yloxy)piperidine-1-carboxylate], the EC50 fell in the range of 1000 to 10000 nM.

Staying with this experiment, now noted: ELISA, Table 7.
In turn, `N#Cc1ccc(CN2CCC(NC(=O)c3ccc(C(=O)N4CCN(Cc5ccc(Cl)cc5)CC4)cc3)CC2)cc1` [Compound 28, 4-(4-(4-Chlorobenzyl)piperazine-1-carbonyl)-N-(1-(4-cyanobenzyl)piperidin-4-yl)benzamide] yielded a 50% effective concentration (EC50) below 100 nM.

As to `N#Cc1ccc(CN2CCC(NC(=O)c3ccc(C(=O)N4CCN(c5ccc(Cl)cc5)CC4)cc3)CC2)cc1` [Compound 29, 4-(4-(4-Chlorophenyl)piperazine-1-carbonyl)-N-(1-(4-cyanobenzyl)piperidin-4-yl)benzamide], the 50% effective concentration (EC50) was 10000 to 100000 nM.

For `N#Cc1ccc(CN2CCC(NC(=O)c3ccc(C(=O)N4CCN(c5ccc(C(F)(F)F)cn5)CC4)cc3)CC2)cc1` [Compound 30, N-(1-(4-Cyanobenzyl)piperidin-4-yl)-4-(4-(5-(trifluoromethyl)pyridin-2-yl)piperazine-1-carbonyl)benzamide], the EC50 was below 100 nM.

For `N#Cc1ccc(CN2CCC(NC(=O)c3ccc(C(=O)NC4CCN(Cc5ccc(C(F)(F)F)cc5)CC4)cc3)CC2)cc1` [Compound 31, N^1-(1-(4-Cyanobenzyl)piperidin-4-yl)-N^4-(1-(4-(trifluoromethyl)benzyl)piperidin-4-yl)terephthalamide], the half-maximal effective concentration (EC50) is below 100 nM.

In turn, `N#Cc1ccc(CN2CCC(NC(=O)c3ccc(C(=O)NC4CCN(c5ccccc5)CC4)cc3)CC2)cc1` [Compound 32, N^1-(1-(4-Cyanobenzyl)piperidin-4-yl)-N^4-(1-phenylpiperidin-4-yl)terephthalamide] had an EC50 of 10000 to 100000 nM.

Regarding `N#Cc1ccc(CN2CCC(NC(=O)c3ccc(C(=O)NC4CCN(Cc5ccccc5)CC4)cc3)CC2)cc1` [Compound 33, N^1-(1-Benzylpiperidin-4-yl)-N^4-(1-(4-cyanobenzyl)piperidin-4-yl)terephthalamide], the concentration for a half-maximal effect (EC50) lay within 10000 to 100000 nM.

The same experiment, now with this note: ELISA, Table 8.
Molecule `N#Cc1ccc(CN2CCC(NC(=O)c3ccc4c(c3)CN(Cc3ccc(C#N)cc3)CC4)CC2)cc1` [Compound 37, 2-(4-cyanobenzyl)-N-(1-(4-cyanobenzyl)piperidin-4-yl)-1,2,3,4-tetrahydroisoquinoline-7-carboxamide] yielded an EC50 below 100 nM.

In turn, `N#Cc1ccc(CN2CCc3ccc(C(=O)NC4CCN(Cc5cccnc5)CC4)cc3C2)cc1` [Compound 38, 2-(4-Cyanobenzyl)-N-(1-(pyridin-3-ylmethyl)piperidin-4-yl)-1,2,3,4-tetrahydroisoquinoline-7-carboxamide] returned an EC50 below 100 nM.

As for `N#Cc1ccc(CN2CCc3ccc(C(=O)NC4CCN(Cc5ccc(C(F)(F)F)cc5)CC4)cc3C2)cc1` [Compound 39, 2-(4-Cyanobenzyl)-N-(1-(4-(trifluoromethyl)benzyl)piperidin-4-yl)-1,2,3,4-tetrahydroisoquinoline-7-carboxamide], the concentration giving a half-maximal response (EC50) lay in the range of 1000 to 10000 nM.

Take `N#Cc1ccc(CN2CCC(NC(=O)c3ccc4c(c3)CN(Cc3ccc(F)cc3)CC4)CC2)cc1` [Compound 40, N-(1-(4-cyanobenzyl)piperidin-4-yl)-2-(4-fluorobenzyl)-1,2,3,4-tetrahydroisoquinoline-7-carboxamide]: the concentration giving a half-maximal response (EC50) was below 100 nM.

`O=C(NC1CCN(Cc2cccnc2)CC1)c1ccc2c(c1)CN(Cc1ccc(F)cc1)CC2` [Compound 41, 2-(4-Fluorobenzyl)-N-(1-(pyridine-3-ylmethyl)piperidin-4-yl)-1,2,3,4-tetrahydroisoquinoline-7-carboxamide] had an EC50 of 1000 to 10000 nM.

Consider `O=C(NC1CCN(Cc2ccc(C(F)(F)F)cc2)CC1)c1ccc2c(c1)CN(Cc1ccc(F)cc1)CC2` [Compound 42, 2-(4-Fluorobenzyl)-N-(1-(4-(trifluoromethyl)benzyl)piperidin-4-yl)-1,2,3,4-tetrahydroisoquinoline-7-carboxamide], for which the concentration giving a half-maximal response (EC50) was 100 to 1000 nM.
